From patent US20030166202A1, “P450 Monooxygenases of the cyp79 family” (priority 2000, published 2003)

Experiments:
CYP79D2 = molecular target: T1, CYP79D2 (Manihot esculenta, UniProt Q9M7B7); type: biochemical, cassava
T1 construct: made in house
Description: Investigations into the substrate specificity of CYP79D1, CYP79D2, CYP79E1, CYP79E2, CYP79A2, CYP79B2, CYP79B5 and CYP79F1 are carried out in E. coli spheroplasts reconstituted with sorghum NADPH-cytochrome P450 oxidoreductase in the presence of high amounts of lipids. L-α-dioleyl phosphatidyl choline and L-α-dilauroyl phosphatidyl choline are preferred lipids for the reconstitution. […] Depending on the nature of the substrate, substrate specificity may also be determined using intact P. pastoris cells or intact E. coli cells.
The ability of a P450 monooxygenase to convert an aliphatic or aromatic amino acid or chain-elongated methionine homologue to the corresponding oxime can be tested in an assay (see also example 5) comprising
a) incubating a reaction mixture comprising the P450 monooxygenase of the present invention or spheroplasts of E.coli cells expressing said enzyme, the parent amino acid, NADPH, oxygen, NADPH-cytochrome P450 oxidoreductase and lipid at ambient temperature for a certain period of time which is between 2 min and 2 to 6 hours;
b) terminating the reaction for example by the addition of a denaturing compounds such as ethyl acetate; and
c) chemically identifying and quantifying the aldoxime produced.

CYP79D1 = CYP79D1 (Manihot esculenta, UniProt Q9M7B8)
CYP79D1, sequence (Q9M7B8 2-542): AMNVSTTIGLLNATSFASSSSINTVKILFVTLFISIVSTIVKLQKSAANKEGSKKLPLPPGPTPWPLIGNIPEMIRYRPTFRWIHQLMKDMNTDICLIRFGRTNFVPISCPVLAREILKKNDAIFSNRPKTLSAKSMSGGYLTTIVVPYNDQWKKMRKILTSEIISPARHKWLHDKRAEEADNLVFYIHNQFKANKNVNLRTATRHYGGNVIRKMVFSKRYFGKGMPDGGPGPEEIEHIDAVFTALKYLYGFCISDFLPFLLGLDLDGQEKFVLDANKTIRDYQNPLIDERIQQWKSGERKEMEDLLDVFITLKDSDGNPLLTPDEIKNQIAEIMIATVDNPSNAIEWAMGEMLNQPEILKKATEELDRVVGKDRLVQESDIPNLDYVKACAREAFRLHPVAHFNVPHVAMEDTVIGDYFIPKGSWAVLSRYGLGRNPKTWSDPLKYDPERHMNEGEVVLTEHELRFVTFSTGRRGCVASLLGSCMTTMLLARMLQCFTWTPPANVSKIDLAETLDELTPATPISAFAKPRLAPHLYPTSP
Description: Isolated, recombinant CYP79D1 is reconstituted and its catalytic activity determined in vitro using reaction mixtures with a total volume of 30 μl containing 2.5 pmol CYP79D1, 0.05 U NADPH P450-oxidoreductase (Benveniste et al, Biochem J 235: 365-373, 1986), 10.6 mM L-α-dioleyl phosphatidylcholine, 0.35 μCi [U-^14C]-L-amino acid (L-Val, L-Ile, L-Leu, L-Tyr or L-Phe; Amersham, Sweden), 1 mM NADPH, 0.1 M NaCl and 20 mM KPi pH 7.9. In assays containing ^14C-L-valine or ^14C-L-isoleucine, different amounts of unlabeled L- and D-amino acids (0-6 mM) are added. After incubation for 10 minutes at 30° C. the products formed are extracted into 60 μl ethyl acetate and separated on TLC sheets (Merck Kieselgel 60F254) using n-pentane/diethyl ether (50:50, v/v) or toluene/ethyl acetate (5:1, v/v) as eluents for aliphatic compounds and aromatic compounds, respectively. ^14C-labeled oximes are visualized and quantified using a STORM 840 phosphor imager (Molecular Dynamics, CA, USA). The activity of CYP79D1 is additionally measured in the presence of the inhibitors tetcyclasis, ABT and DPI under the same conditions as described above. For in vivo activity assays 200 μl P. pastoris cells are pelleted and resuspended in 100 μl 50 mM Tricine pH 7.9 and 0.35 μCi [U-^14C]-L-valine or L-isoleucine. After incubation for 30 minutes at 30° C. the cells are extracted with ethyl acetate and the products formed are analyzed as above.
CYP79D1 is reconstituted with sorghum NADPH-P450 oxidoreductase in the presence of high amounts of the lipid L-α-dioleyl phosphatidylcholine and 100 mM NaCl. […] To examine the effect of inhibitors on isolated CYP79D1, reconstitutions are performed in the presence of tetcyclasis, ABT and DPI using the same conditions as for cassava microsomes.

CYP79A2 = molecular target: T2, CYP79A2 (Arabidopsis thaliana, UniProt Q9FLC8); assay: CYP79A2 activity in E. coli spheroplasts reconstituted with NADPH:cytochrome P450 oxidoreductase; details: TLC or GC-MS detection
T2 sequence (Q9FLC8 7-529 limits assumed): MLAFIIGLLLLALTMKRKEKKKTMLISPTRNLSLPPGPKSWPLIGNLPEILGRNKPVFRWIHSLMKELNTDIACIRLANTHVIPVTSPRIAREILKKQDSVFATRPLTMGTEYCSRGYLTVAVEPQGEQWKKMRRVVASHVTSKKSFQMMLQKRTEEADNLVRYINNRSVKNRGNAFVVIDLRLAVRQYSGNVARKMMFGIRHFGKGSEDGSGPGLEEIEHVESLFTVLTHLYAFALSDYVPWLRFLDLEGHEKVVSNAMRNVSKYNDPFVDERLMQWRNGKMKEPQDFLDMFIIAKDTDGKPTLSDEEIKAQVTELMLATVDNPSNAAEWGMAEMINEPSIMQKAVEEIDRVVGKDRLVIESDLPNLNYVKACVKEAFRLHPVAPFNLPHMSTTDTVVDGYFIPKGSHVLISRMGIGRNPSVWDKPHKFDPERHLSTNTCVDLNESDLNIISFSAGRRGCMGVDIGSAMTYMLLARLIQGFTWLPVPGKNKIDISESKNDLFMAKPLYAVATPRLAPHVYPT

CYP79F1 = CYP79F1 (Arabidopsis thaliana, UniProt Q949U1, M2A); details: E. coli C43(DE3) spheroplasts, GC-MS or TLC
CYP79F1, sequence (Q949U1 whole entry M2A): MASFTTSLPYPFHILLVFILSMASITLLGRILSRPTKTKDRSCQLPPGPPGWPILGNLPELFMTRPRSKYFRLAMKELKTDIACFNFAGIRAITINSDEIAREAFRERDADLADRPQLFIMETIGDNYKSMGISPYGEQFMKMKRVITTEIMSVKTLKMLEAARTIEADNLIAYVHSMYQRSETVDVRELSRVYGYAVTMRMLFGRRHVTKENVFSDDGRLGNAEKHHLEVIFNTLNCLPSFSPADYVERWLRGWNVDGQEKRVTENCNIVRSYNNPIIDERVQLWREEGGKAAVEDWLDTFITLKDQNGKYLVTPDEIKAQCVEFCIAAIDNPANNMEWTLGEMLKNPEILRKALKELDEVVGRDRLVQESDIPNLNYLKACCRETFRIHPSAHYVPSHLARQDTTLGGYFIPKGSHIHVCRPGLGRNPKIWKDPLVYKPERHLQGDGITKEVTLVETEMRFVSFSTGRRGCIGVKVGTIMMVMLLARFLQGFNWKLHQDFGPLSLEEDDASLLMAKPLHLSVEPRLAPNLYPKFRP
Description: In a typical enzyme assay, 5 μl spheroplasts and 4 μl NADPH:cytochrome P450 reductase (equivalent to 0.04 units defined as 1 μmol cytochrome c/min) are incubated with substrate in buffer containing 30 mM KPi, pH 7.5, 3 mM NADPH, 3 mM reduced glutathione, 0.042% Tween 80, 1 mg ml^−1 L-α-dilauroylphosphatidylcholine in a total volume of 30 μl. Reaction mixtures containing spheroplasts of E. coli C43(DE3) transformed with empty vector are used as controls in all assays. 3.3 μM L-[U-^14C]phenylalanine (453 mCi/mmol; Pharmacia), 3.7 μM L-[U-^14C]tyrosine (449 mCi/mmol; Pharmacia), 0.1 mM L-[methyl-^14C]methionine (56 mCi/mmol; Pharmacia), and 24 μM L-[side chain-3-^14C]tryptophan (56.5 mCi/mmol; NEN) are tested as potential substrates. After incubation at 28° C. for 1 hour, half of the reaction mixture is analyzed by TLC on Silica Gel 60 F254 sheets (Merck) using toluene/ethyl acetate 5:1 (v/v) as eluent. Radiolabelled bands are visualized and quantified using a STORM 840 phosphoimager (Pharmacia). For GC-MS analysis, 450 μl reaction mixture containing 3.3 mM L-methionine (Sigma), 3.3 mM DL-dihomomethionine or 3.3 mM DL-trihomomethionine, respectively, are incubated for 4 hours at 25° C. and extracted with a total volume of 600 μl CHCl3. The organic phase is collected, evaporated, and the residue is dissolved in 15 μl CHCl3 and analyzed by GC-MS. […] An SGE column (BPX5, 25 m×0.25 mm, 0.25 μm film thickness) is used (heat pressure 100 kPa, splitless injection). The oven temperature program is as follows: 80° C. for 3 minutes, 80° C. to 180° C. at 5° C. min^−1, 180° C. to 300° C. at 20° C. min^−1, and 300° C. for 10 min. The ion source is run in EI mode (70 eV) at 200° C. […] DL-dihomomethionine, DL-trihomomethionine, 5-methylthiopentanaldoxime and 6-methylthiohexanaldoxime are synthesized as described (Dawson et al, J. Biol. Chem. 268: 27154-27159, 1993) and authenticated by NMR spectroscopy.

T1 sequence (Q9M7B7 whole entry): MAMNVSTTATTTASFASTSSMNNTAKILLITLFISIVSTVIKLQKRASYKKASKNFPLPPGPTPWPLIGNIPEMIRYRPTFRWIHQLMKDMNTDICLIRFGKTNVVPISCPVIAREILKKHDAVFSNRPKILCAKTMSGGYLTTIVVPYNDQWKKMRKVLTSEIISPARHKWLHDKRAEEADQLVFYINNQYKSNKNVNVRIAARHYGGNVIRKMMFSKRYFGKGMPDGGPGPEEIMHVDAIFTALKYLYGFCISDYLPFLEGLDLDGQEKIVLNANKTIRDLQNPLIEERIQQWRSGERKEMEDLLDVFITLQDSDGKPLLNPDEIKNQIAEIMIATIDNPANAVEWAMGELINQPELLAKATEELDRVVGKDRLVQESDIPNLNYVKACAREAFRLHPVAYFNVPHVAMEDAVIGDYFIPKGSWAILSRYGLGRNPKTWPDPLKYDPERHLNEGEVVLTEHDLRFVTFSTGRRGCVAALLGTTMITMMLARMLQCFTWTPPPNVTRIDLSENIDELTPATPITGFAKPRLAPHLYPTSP

N[C@@H](Cc1ccc(O)cc1)C(=O)O [L-tyrosine]
conversion to the corresponding oxime by CYP79D2 (CYP79D2): Neither L-Leucine, L-phenylalanine nor L-tyrosine are metabolized
metabolism relative to that observed with L-valine (detection level) (CYP79D1): < 0.8%
production of the respective aldoxime by CYP79A2 (CYP79A2): does not result in production of detectable amounts of the respective aldoximes
formation of the corresponding aldoxime by CYP79F1 (CYP79F1): did not result in the formation of detectable amounts of the corresponding aldoximes
